Assay results as given in BindingDB's records for doi:10.1021/bi100299r (Riken Systems and Structural Biology Center, 2010).
pIC50: −log10 of the molar value.

Target: Lysine-specific histone demethylase 1A (Homo sapiens, UniProt O60341)
Assay: LSD1 Inhibition Assay
Description: The kinetic inhibition parameters of LSD1 demethylase inhibition were obtained using the peroxidase-coupled reaction method.

Row | SMILES | pIC50
1 | CC(C)COc1ccc(Cl)cc1C1CC1N (centres undefined) | 4.83
2 | NC1CC1c1cc(F)ccc1-c1ccccc1 (centres undefined) [S1310] | < 4.30
3 | NC1CC1c1cc(Cl)ccc1OCc1ccccc1 (centres undefined) [S1401] | < 4.52
4 | CC(C)COc1c(Cl)cc(Cl)cc1C1CC1N (centres undefined) [S1502] | < 4.30
5 | NC1CC1c1ccc(OCc2ccccc2)cc1OCc1ccccc1 (centres undefined) [S1601] | < 4.52
6 | CC(C)COc1ccc(C2CC2N)c(OCC(C)C)c1 (centres undefined) [S1602] | < 4.52
7 | NC1CC1c1ccc(OCC2CCCCC2)cc1OCC1CCCCC1 (centres undefined) [S1603] | < 4.52
8 | NCc1cccc(COc2c(F)cc(F)cc2C2CC2N)c1 (centres undefined) [S2107] | 5.39
9 | COc1cccc(COc2c(F)cc(F)cc2C2CC2N)c1 (centres undefined) [S2206] | < 4.52
